# Experimental data from paper PMC3816012 (Structure (London, England : 1993), 2013).
# Biological target: Qcl (Legionella pneumophila, UniProt O54635)
# Experiment: biochemical
# Chain of Qcl (O54635 49-191 limits assumed): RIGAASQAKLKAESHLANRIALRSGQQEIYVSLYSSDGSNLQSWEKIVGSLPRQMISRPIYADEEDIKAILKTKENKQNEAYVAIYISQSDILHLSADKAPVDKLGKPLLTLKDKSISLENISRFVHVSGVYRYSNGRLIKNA
compound,measurement,value
NC(=O)c1ccc[n+]([C@@H]2O[C@H](COP(=O)(O)OP(=O)(O)OC[C@H]3O[C@@H](n4cnc5c(N)ncnc54)[C@H](O)[C@@H]3O)[C@@H](O)[C@H]2O)c1 [NAD+],Kd,400 to 600 µM
